In US20210085640A1, “ACYLATED CATECHIN POLYPHENOLS AND METHODS OF THEIR USE FOR THE TREATMENT OF CANCER” (Flagship Pioneering Innovations V, Inc., priority 2018, published 2021):

Columns and labels:
Assay type in all cases: cell-based
[1] = system: T24 bladder cancer cells; assay: Cancer cell survival (CellTiter-Glo), T24; settings: Homo sapiens
In short: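 T24 cells seeded at 4×10^3 cells/well overnight, then exposed 72 h at 37 C, 5% CO2 to nine concentrations in triplicate. Survival measured by CellTiter-Glo luminescence relative to untreated and medium controls; IC50 derived.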

[2] = system: Daudi lymphoma cancer cells; assay: Cancer cell survival (CellTiter-Glo), Daudi; settings: Homo sapiens, 72 h
In short: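 Daudi cells (4×10^3/well) were exposed for 72 h at 37 °C to nine concentrations of compound, added as 10× solutions spanning 1 μM–10 mM (fatty acids) or 100 nM–1 mM (others). CellTiter-Glo luminescence gave % survival versus untreated, medium-blank corrected; IC50 derived.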

[3] = system: MCF7 breast cancer cells; assay: Cancer cell survival (CellTiter-Glo), MCF7; settings: Homo sapiens, 72 h
In short: (§1)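 Cells seeded at 4×10^3 cells/well, incubated overnight, then treated in triplicate at nine concentrations for 72 h at 37 C, 5% CO2. Viability by CellTiter-Glo luminescence, survival % normalized to untreated and medium controls; IC50 derived.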

[4] = system: HCT 116 colorectal cancer cells; assay: Cancer cell survival (CellTiter-Glo), HCT 116; settings: Homo sapiens, HCT 116 cells, 72 h
In short: as §1

[5] = system: A549 lung cancer cells; assay: Cancer cell survival (CellTiter-Glo), A549; settings: Homo sapiens, 72 h
In short: as §1

[6] = system: PC-3 prostate cancer cells; assay: Cancer cell survival (CellTiter-Glo), PC-3; settings: Homo sapiens, PC-3 cells, 72 h
In short: as §1

[7] = system: A-431 skin cancer cells; assay: Cancer cell survival (CellTiter-Glo), A-431; settings: Homo sapiens, A-431 cells, 72 h
In short: as §1

[8] = system: AGS stomach cancer cells; assay: Cancer cell survival (CellTiter-Glo), AGS
In short: as §1

[9] = Human Regulatory T Cell Differentiation Assay; settings: human, primary naïve CD4+ T cells isolated from PBMCs, 1 uM, read-out: Cell viability % DMSO
In short: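 Naïve CD4+ T cells isolated from healthy-donor PBMCs, cultured 6 days with 5 ng/ml TGF-β, 100 U/ml IL-2 and CD3/CD28/CD2 activator, with or without compound. Flow cytometry of live cells; Tregs as CD4+CD25+FOXP3+ percentage of total CD4+ T cells, compared by one-way ANOVA.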

[10] = 101 nM, read-out: Cell survival at given concentration
[11] = 318 nM, read-out: Cell survival at given concentration
[12] = 1 μM, read-out: Cell survival at given concentration
[13] = 3 μM, read-out: Cell survival at given concentration
[14] = 10 μM, read-out: Cell survival at given concentration
[15] = 32 μM, read-out: Cell survival at given concentration
[16] = 100 μM, read-out: Cell survival at given concentration
[17] = 316 μM, read-out: Cell survival at given concentration
[18] = 1000 μM, read-out: Cell survival at given concentration

Structure (SMILES): Oc1ccc(C=Cc2cc(O)cc(O)c2)cc1 [resveratrol]
- viability at 0.101 µM ([1]; T-24, 101 nM, 72 h, read-out: Cell survival at given concentration): 100%
- viability at 0.318 µM ([1]; T-24, 318 nM, 72 h, read-out: Cell survival at given concentration): 102%
- viability at 1 µM ([1]; T-24, 1 μM, 72 h, read-out: Cell survival at given concentration): 100%
- viability at 3 µM ([1]; T-24, 3 μM, 72 h, read-out: Cell survival at given concentration): 101%
- viability at 10 µM ([1]; T-24, 10 μM, 72 h, read-out: Cell survival at given concentration): 92%
- viability at 32 µM ([1]; T-24, 32 μM, 72 h, read-out: Cell survival at given concentration): 1%
- viability at 100 µM ([1]; T-24, 100 μM, 72 h, read-out: Cell survival at given concentration): 0%
- viability at 316 µM ([1]; T-24, 316 μM, 72 h, read-out: Cell survival at given concentration): 0%
- viability at 1000 µM ([1]; T-24, 1000 μM, 72 h, read-out: Cell survival at given concentration): 0%
- IC50 ([1]; T-24, 72 h, Table 3.1, read-out: 1050): 15.1 µM
- viability at 0.101 µM [2, 10]: 100%
- viability at 0.318 µM [2, 11]: 101%
- viability at 1 µM [2, 12]: 102%
- viability at 3 µM [2, 13]: 102%
- viability at 10 µM [2, 14]: 101%
- viability at 32 µM [2, 15]: 14%
- viability at 100 µM [2, 16]: 0%
- viability at 316 µM [2, 17]: 0%
- viability at 1000 µM [2, 18]: 0%
- IC50 ([2]; Table 4.1): 23.9 µM
- viability at 0.101 µM [3, 10]: 94%
- viability at 0.318 µM [3, 11]: 96%
- viability at 1 µM [3, 12]: 99%
- viability at 3 µM [3, 13]: 99%
- viability at 10 µM [3, 14]: 95%
- viability at 32 µM [3, 15]: 96%
- viability at 100 µM [3, 16]: 85%
- viability at 316 µM [3, 17]: 27%
- viability at 1000 µM [3, 18]: 0%
- IC50 ([3]; Table 5.1): 212 µM
- viability at 0.101 µM [4, 10]: 103%
- viability at 0.318 µM [4, 11]: 98%
- viability at 1 µM [4, 12]: 98%
- viability at 3 µM [4, 13]: 101%
- viability at 10 µM [4, 14]: 98%
- viability at 32 µM [4, 15]: 65%
- viability at 100 µM [4, 16]: 0%
- viability at 316 µM [4, 17]: 0%
- viability at 1000 µM [4, 18]: 0%
- IC50 ([4]; Table 6.1): 37.4 µM
- viability at 0.101 µM [5, 10]: 98%
- viability at 0.318 µM [5, 11]: 99%
- viability at 1 µM [5, 12]: 98%
- viability at 3 µM [5, 13]: 98%
- viability at 10 µM [5, 14]: 98%
- viability at 32 µM [5, 15]: 96%
- viability at 100 µM [5, 16]: 88%
- viability at 316 µM [5, 17]: 50%
- viability at 1000 µM [5, 18]: 0%
- IC50 ([5]; Table 7.1): 317 µM
- viability at 0.101 µM [6, 10]: 101%
- viability at 0.318 µM [6, 11]: 102%
- viability at 1 µM [6, 12]: 101%
- viability at 3 µM [6, 13]: 102%
- viability at 10 µM [6, 14]: 103%
- viability at 32 µM [6, 15]: 96%
- viability at 100 µM [6, 16]: 95%
- viability at 316 µM [6, 17]: 32%
- viability at 1000 µM [6, 18]: 0%
- IC50 ([6]; Table 8.1): 248 µM
- viability at 0.101 µM [7, 10]: 101%
- viability at 0.318 µM [7, 11]: 101%
- viability at 1 µM [7, 12]: 102%
- viability at 3 µM [7, 13]: 102%
- viability at 10 µM [7, 14]: 98%
- viability at 32 µM [7, 15]: 87%
- viability at 100 µM [7, 16]: 65%
- viability at 316 µM [7, 17]: 13%
- viability at 1000 µM [7, 18]: 0%
- IC50 ([7]; Table 9.1): 132 µM
- viability at 0.101 µM ([8]; 72 h, 101 nM, read-out: Cell survival at given concentration): 100%
- viability at 0.318 µM ([8]; 72 h, 318 nM, read-out: Cell survival at given concentration): 95%
- viability at 1 µM ([8]; 72 h, 1 μM, Table 10.1, read-out: Cell survival at given concentration): 101%
- viability at 3 µM ([8]; 72 h, 3 μM, Table 10.1, read-out: Cell survival at given concentration): 98%
- viability at 10 µM ([8]; 72 h, 10 μM, Table 10.1, read-out: Cell survival at given concentration): 100%
- viability at 32 µM ([8]; 72 h, 32 μM, Table 10.1, read-out: Cell survival at given concentration): 101%
- viability at 100 µM ([8]; 72 h, 100 μM, Table 10.1, read-out: Cell survival at given concentration): 94%
- viability at 316 µM ([8]; 72 h, 316 μM, read-out: Cell survival at given concentration): 33%
- viability at 1000 µM ([8]; 72 h, 1000 μM, read-out: Cell survival at given concentration): 0%
- IC50 ([8]; Table 10.1): 252 µM
- viability at 6 days, 1 µM [9]: < 90%
